Where two headings read alike, the source gives them in different places. Numbered stars: 1 amine (or outer) side, 2 acyl side, 3 side chain; on linkers, the order of the positions; unused ones are H or OH. Square brackets hold non-standard residues; d marks the D form. Side chains are listed from the residue outwards. Peptide text beside a SMILES is read from it. * marks the point of attachment. C20 diacid = O=C(O)CCCCCCCCCCCCCCCCCCC(=O)*; γGlu = O=C(O)[C@H](CCC(=O)[*:2])N[*:1]; AEEA = NCCOCCOCC(=O)O; Aib = CC(C)(N)C(=O)O
Columns and labels:
GLP1R = GLP1R (Homo sapiens, UniProt P43220); assay: hGLP1R potency, cAMP accumulation in CHO-K1 cells stably overexpressing hGLP1R; format: cell-based; set-up: host or cells: CHO-K1; settings: for EC50: cAMP accumulation; for SCTR EC50/GLP1R EC50 ratio: cAMP accumulation in CHO-K1 cells
Sequence of GLP1R (P43220 24-463): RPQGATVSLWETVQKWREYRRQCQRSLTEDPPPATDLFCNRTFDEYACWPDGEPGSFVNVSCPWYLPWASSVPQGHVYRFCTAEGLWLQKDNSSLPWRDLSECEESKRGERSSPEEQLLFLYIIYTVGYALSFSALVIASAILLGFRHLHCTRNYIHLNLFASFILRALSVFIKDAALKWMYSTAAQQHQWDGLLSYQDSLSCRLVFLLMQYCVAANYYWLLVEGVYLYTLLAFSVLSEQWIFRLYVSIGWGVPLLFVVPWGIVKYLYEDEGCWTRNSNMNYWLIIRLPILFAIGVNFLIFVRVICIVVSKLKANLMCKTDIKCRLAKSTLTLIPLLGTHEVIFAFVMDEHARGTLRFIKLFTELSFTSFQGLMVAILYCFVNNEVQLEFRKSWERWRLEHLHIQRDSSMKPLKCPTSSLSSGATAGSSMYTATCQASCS
Procedure, shortened: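 Cells were plated in DPBS with 0.05% casein and 0.5 mM IBMX, then stimulated for 30 min at room temperature with test compound. cAMP was read by TR-FRET after one hour. EC50 came from variable-slope sigmoid nonlinear regression; purified peptides ran as 11-point 3-fold series, n=2.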

[1] = Turbidity of crude library peptides (absorbance at 600 nm); format: physicochemical; settings: Physical stability of peptides
Procedure, shortened: (§1)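 Values reflect mean ThT emission (ex 450, em 480 nm) over 72 h at 40° C, read every 10 min after 5 min shaking at 700 rpm, plus a single initial absorbance at 600 nm for turbidity. Peptides were at 267 μM, pH 4.0 acetate or pH 7.0 phosphate (50 mM), with 4 μM ThT.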

SCTR = SCTR (Homo sapiens, UniProt P47872); assay: hSCTR potency, cAMP accumulation in CHO-K1 cells stably overexpressing hSCTR; format: cell-based; set-up: alternatively Euroscreen ES-712-AF; FAST-0161L; host or cells: CHO-K1; settings: cAMP accumulation
Sequence of SCTR (P47872 23-440): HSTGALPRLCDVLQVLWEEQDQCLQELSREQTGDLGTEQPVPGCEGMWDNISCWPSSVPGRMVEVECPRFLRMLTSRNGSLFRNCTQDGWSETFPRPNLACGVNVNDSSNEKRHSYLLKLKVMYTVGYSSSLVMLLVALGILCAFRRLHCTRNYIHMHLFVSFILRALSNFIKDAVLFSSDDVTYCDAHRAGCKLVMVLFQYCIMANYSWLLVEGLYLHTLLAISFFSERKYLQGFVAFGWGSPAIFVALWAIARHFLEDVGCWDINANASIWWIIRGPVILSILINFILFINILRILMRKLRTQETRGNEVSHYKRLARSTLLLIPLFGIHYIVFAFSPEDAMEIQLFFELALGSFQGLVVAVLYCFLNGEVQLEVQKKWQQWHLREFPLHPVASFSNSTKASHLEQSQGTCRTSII
Procedure, shortened: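 Division-arrested CHO-K1 cells stably expressing hSCTR were plated in DPBS with 0.05% casein and 0.5 mM IBMX, then stimulated with test peptide for 30 min at room temperature. cAMP was read by HTRF after one hour. EC50 came from variable-slope sigmoidal nonlinear regression.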

[2] = Fibril formation of crude library peptides (Thioflavin T); format: physicochemical; set-up: key: average ThT fluorescence emission at 480 nm (ex 450 nm), raw units; settings: Physical stability of peptides
Procedure, shortened: as §1

[3] = CHO-K1 cells overexpressing hGLP1R, read-out: hGLP1R pEC50 (converted)
[4] = selectivity for hGLP1R over hSCTR
[5] = CHO-K1 cells overexpressing hSCTR, read-out: hSCTR pEC50 (converted)

Row | SMILES | EC50 (GLP1R; [3]) [nM] | SCTR EC50/GLP1R EC50 ratio (GLP1R; [4]) | Turbidity (pH 7) [1] | EC50 (SCTR; [5]) [nM] | Fibril formation [2] | EC50 (GLP1R; CHO-K1 cells stably overexpressing hGLP1R, read-out: hGLP1R potency (pEC50) (converted)) [nM] | SCTR EC50/GLP1R EC50 ratio (GLP1R; selectivity ratio, hSCTR vs hGLP1R) | EC50 (SCTR; CHO-K1 cells stably overexpressing hSCTR, read-out: hSCTR potency (pEC50) (converted)) [nM]
1 | CC(C)C[C@H](NC(=O)[C@H](Cc1ccccc1)NC(=O)[C@H](CCCNC(=N)N)NC(=O)[C@H](CCC(N)=O)NC(=O)C(C)(C)NC(=O)[C@H](C)NC(=O)[C@H](C)NC(=O)[C@H](CCC(=O)O)NC(=O)[C@H](CCC(=O)O)NC(=O)[C@H](CCCCNC(=O)COCCOCCNC(=O)COCCOCCNC(=O)CC[C@H](NC(=O)CCCCCCCCCCCCCCCCCCC(=O)O)C(=O)O)NC(=O)[C@H](CC(C)C)NC(=O)[C@H](CCC(=O)O)NC(=O)[C@H](CO)NC(=O)[C@@H](NC(=O)[C@H](CC(=O)O)NC(=O)[C@H](CO)NC(=O)[C@@H](NC(=O)[C@H](Cc1ccccc1)NC(=O)[C@@H](NC(=O)CNC(=O)[C@H](CCC(=O)O)NC(=O)C(C)(C)NC(=O)[C@@H](N)Cc1c[nH]cn1)[C@@H](C)O)[C@@H](C)O)C(C)C)C(=O)N[C@@H](CCC(=O)O)C(=O)N[C@@H](Cc1c[nH]cn1)C(=O)N[C@@H](CC(C)C)C(=O)N[C@H](C(N)=O)C(C)C [compound 97] (H-H[Aib]EGTFTSDVSELK([AEEA-AEEA-γGlu-C20 diacid])EEAA[Aib]QRFLEHLV-NH2) | 0.01 | 145949 | 0.09 | 1580 | 10277 | – | – | –
2 | CC(C)C[C@H](NC(=O)[C@H](CCC(=O)O)NC(=O)[C@H](CCCCNC(=O)COCCOCCNC(=O)COCCOCCNC(=O)CC[C@H](NC(=O)CCCCCCCCCCCCCCCCCCC(=O)O)C(=O)O)NC(=O)[C@H](CC(C)C)NC(=O)[C@H](CCC(=O)O)NC(=O)[C@H](CO)NC(=O)[C@@H](NC(=O)[C@H](CC(=O)O)NC(=O)[C@H](CO)NC(=O)[C@@H](NC(=O)[C@H](Cc1ccccc1)NC(=O)[C@@H](NC(=O)CNC(=O)[C@H](CCC(=O)O)NC(=O)C(C)(C)NC(=O)[C@@H](N)Cc1c[nH]cn1)[C@@H](C)O)[C@@H](C)O)C(C)C)C(=O)N[C@@H](C)C(=O)N[C@@H](C)C(=O)N[C@@H](CCC(N)=O)C(=O)N[C@@H](CCC(N)=O)C(=O)N[C@@H](CCCNC(=N)N)C(=O)N[C@@H](Cc1ccccc1)C(=O)N[C@@H](CC(C)C)C(=O)N[C@@H](CCC(=O)O)C(=O)N[C@@H](Cc1c[nH]cn1)C(=O)N[C@@H](CC(C)C)C(=O)N[C@H](C(N)=O)C(C)C [compound 99] (H-H[Aib]EGTFTSDVSELK([AEEA-AEEA-γGlu-C20 diacid])ELAAQQRFLEHLV-NH2) | 0.0158 | 52372 | 0.17 | 794 | 87225 | – | – | –
3 | CC[C@H](C)[C@H](NC(=O)[C@H](Cc1ccccc1)NC(=O)[C@H](CCCNC(=N)N)NC(=O)[C@H](CCC(N)=O)NC(=O)[C@H](CC(C)C)NC(=O)[C@H](C)NC(=O)[C@H](C)NC(=O)CNC(=O)[C@H](CCC(=O)O)NC(=O)[C@H](CC(C)C)NC(=O)[C@H](CC(C)C)NC(=O)[C@@H](NC(=O)[C@H](CO)NC(=O)[C@H](Cc1c[nH]c2ccccc12)NC(=O)[C@H](CC(=O)O)NC(=O)[C@H](CO)NC(=O)[C@@H](NC(=O)[C@H](Cc1ccccc1)NC(=O)[C@@H](NC(=O)CNC(=O)[C@H](CCC(=O)O)NC(=O)C(C)(C)NC(=O)[C@@H](N)Cc1c[nH]cn1)[C@@H](C)O)[C@@H](C)O)C(C)C)C(=O)N[C@@H](CCC(N)=O)C(=O)N[C@@H](Cc1c[nH]c2ccccc12)C(=O)N[C@@H](CC(C)C)C(=O)N[C@H](C(N)=O)C(C)C [compound 188] (H-H[Aib]EGTFTSDWSVLLEGAALQRFIQWLV-NH2) | – | – | 0.85 | – | 260000 | 0.0794 | 468 | 31.6

— patent US20260201008A1, “SECRETIN-DERIVED GLP1R SELECTIVE AGONISTS” (GUBRA A/S, priority 2023, published 2026)
